The target of one assay is T1, CSNK1D (Homo sapiens, UniProt P48730).
T1 construct: made in house
As to the kind of experiment: Kinase inhibition test (DNA-tagged kinase, affinity resin, qPCR readout). The class given is binding. Set-up: key: (−) indicates no effect; (+) indicates weak inhibitory activity; (++) indicates a moderate level of inhibitory activity; (+++) indicates strong inhibitory activity. The note with it: 1 μM of compound. In a few lines:
(§1)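 Competition binding: DNA-tagged kinases (phage/E. coli or HEK-293 produced) with immobilized biotinylated ligand and test compound in DMSO, 1 h at room temperature. After washing, bound kinase eluted with 0.5 μM non-biotinylated ligand and quantified by qPCR.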
For orientation: In qPCR the cycle at which signal appears reflects the starting amount.

The next assay has as its target T2, DYRK1A (Homo sapiens, UniProt Q13627).
T2 construct: made in house
The description is as above. In kind it is binding. Set-up: key: (−) indicates no effect; (+) indicates weak inhibitory activity; (++) indicates a moderate level of inhibitory activity; (+++) indicates strong inhibitory activity. The settings on record: 1 μM of compound. The method, boiled down: as §1

In the next assay the target is T3, NTRK1 (Homo sapiens, UniProt P04629).
T3 construct: made in house
The description is as above. The class given is binding. Details: key: (−) indicates no effect; (+) indicates weak inhibitory activity; (++) indicates a moderate level of inhibitory activity; (+++) indicates strong inhibitory activity. The note with it: 1 μM of compound. In a few lines: as §1

The target of a further assay is T4, DYRK1B (Homo sapiens, UniProt Q9Y463).
T4 construct: made in house
The assay is described as above. In kind it is binding. Details: key: (−) indicates no effect; (+) indicates weak inhibitory activity; (++) indicates a moderate level of inhibitory activity; (+++) indicates strong inhibitory activity. The settings on record: 1 μM of compound. The method, boiled down:
as §1

For the next assay, the target named is T5, FLT3 (Homo sapiens, UniProt P36888).
T5 construct: made in house
T5 sequence (P36888 27-993): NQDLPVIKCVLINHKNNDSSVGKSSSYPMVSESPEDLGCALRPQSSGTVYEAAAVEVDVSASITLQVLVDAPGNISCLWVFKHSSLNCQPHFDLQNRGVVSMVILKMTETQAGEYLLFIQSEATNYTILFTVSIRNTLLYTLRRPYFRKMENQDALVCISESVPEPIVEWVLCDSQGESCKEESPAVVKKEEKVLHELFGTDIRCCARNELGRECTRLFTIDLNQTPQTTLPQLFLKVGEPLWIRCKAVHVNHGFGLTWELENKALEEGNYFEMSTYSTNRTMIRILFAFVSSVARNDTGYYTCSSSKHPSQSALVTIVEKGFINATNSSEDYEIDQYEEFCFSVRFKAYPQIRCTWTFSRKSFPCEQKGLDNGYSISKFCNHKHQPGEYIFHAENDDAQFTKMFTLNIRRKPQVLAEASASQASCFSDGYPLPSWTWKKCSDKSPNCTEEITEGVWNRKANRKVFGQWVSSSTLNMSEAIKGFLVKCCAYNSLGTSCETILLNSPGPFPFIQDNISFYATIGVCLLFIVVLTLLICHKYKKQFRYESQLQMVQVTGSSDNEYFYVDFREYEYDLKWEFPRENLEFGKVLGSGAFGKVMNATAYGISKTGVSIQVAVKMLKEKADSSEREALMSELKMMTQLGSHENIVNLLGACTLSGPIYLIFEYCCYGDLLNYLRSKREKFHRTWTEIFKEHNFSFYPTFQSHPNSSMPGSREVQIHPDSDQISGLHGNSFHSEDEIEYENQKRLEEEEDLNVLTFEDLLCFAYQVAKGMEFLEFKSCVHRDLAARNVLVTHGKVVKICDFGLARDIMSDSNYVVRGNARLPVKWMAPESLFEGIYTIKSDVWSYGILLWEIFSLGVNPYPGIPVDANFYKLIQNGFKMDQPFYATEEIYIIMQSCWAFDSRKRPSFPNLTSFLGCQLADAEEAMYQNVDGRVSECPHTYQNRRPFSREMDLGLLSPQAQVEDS
The assay is described as above. The note with it: 1 μM of compound. Set-up: key: (−) indicates no effect; (+) indicates weak inhibitory activity; (++) indicates a moderate level of inhibitory activity; (+++) indicates strong inhibitory activity. The class given is binding. In a few lines:
as §1

The subject of assay [1] is SNU638 (stomach cancer cells). In words: Inhibitory activity against cancer cells (sulforhodamine B staining). The class given is cell-based. The note with it: 3 days, SRB staining. In a few lines:
(§2)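 Cells pre-incubated 1 day (day-0 reference), then exposed to test compound 3 days. Sulforhodamine B staining (0.4% SRB, 1% acetic acid), dye dissolved in 10 mM Tris pH 10.0, absorbance at 515 nm. Cell division % relative to day 0 and control; IC50 by non-linear regression.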

The subject of assay [2] is SK-Hep-1 (liver cancer cells). Described as above. In kind it is cell-based. The note with it: 3 days, SRB staining. In a few lines: as §2
On the technique in general: In SRB staining, fixed cells bind dye roughly in proportion to their protein.

In a further assay the test system is A549 (lung cancer cells). The assay is described as above. In kind it is cell-based. The note with it: 3 days, SRB staining. The method, boiled down:
as §2

For assay [3], the system named is PC-3 (prostate cancer cells). Described as above. The class given is cell-based. The note with it: 3 days, SRB staining. The method, boiled down: as §2
The subject of assay [4] is HCT116 (colon cancer cells). The assay is described as above. In kind it is cell-based. The note with it: 3 days, SRB staining. In a few lines:
as §2

In assay [5] the test system is MDA-MB-231 (breast cancer cells). The description is as above. In kind it is cell-based. The settings on record: 3 days, SRB staining. In a few lines: as §2

One may read the IC50 as the concentration that inhibits the measured activity by half.

Each structure is given as a SMILES string.

T4 sequence (Q9Y463 whole entry): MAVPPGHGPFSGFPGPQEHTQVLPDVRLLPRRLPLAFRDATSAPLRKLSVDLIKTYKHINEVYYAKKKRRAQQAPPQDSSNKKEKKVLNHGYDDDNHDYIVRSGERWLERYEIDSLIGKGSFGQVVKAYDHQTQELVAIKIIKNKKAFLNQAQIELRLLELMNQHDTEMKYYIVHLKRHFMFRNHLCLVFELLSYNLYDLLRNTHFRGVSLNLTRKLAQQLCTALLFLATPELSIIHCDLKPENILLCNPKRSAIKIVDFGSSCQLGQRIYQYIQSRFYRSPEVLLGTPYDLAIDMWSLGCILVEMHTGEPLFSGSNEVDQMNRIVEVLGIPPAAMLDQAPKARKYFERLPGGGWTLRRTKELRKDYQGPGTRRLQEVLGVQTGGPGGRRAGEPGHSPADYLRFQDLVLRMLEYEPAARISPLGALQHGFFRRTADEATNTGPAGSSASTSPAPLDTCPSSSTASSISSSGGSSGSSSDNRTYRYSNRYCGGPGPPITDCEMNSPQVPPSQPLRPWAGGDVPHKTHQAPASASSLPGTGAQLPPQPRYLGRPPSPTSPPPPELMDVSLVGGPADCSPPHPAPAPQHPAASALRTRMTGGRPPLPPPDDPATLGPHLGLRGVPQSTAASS
T3 sequence (P04629 33-796): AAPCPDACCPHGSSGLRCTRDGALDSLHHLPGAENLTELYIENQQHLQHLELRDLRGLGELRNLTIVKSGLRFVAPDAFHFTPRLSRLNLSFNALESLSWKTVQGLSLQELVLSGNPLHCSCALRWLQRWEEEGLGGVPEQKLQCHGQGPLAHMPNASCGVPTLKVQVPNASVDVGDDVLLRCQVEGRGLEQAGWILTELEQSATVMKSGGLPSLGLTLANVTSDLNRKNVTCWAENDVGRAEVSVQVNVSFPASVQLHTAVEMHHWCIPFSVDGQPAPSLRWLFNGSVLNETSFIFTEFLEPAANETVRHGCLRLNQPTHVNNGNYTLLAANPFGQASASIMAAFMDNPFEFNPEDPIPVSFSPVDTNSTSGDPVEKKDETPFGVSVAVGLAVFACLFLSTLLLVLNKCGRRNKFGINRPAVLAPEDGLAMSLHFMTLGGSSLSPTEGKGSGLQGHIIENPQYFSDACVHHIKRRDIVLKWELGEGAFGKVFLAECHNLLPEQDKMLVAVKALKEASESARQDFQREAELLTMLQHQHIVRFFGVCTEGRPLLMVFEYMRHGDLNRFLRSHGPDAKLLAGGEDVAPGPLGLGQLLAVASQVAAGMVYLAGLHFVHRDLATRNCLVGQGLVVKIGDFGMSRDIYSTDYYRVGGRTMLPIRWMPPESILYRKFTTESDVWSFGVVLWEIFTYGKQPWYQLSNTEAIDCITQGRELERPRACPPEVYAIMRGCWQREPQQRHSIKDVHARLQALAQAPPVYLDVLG
T1 sequence (P48730 whole entry): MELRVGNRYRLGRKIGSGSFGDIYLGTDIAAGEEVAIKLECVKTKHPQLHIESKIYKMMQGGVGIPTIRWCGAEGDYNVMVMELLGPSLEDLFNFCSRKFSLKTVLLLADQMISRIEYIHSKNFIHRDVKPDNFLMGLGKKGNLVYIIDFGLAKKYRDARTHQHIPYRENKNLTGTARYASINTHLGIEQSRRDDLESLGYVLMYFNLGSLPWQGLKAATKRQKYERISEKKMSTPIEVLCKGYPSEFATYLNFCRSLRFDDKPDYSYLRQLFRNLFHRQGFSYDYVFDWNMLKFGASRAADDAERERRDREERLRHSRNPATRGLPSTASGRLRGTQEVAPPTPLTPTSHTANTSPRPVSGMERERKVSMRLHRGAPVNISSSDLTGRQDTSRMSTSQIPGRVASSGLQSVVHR

Consider `C#Cc1cn([C@@H]2S[C@H](CNC(=O)c3ccccc3)[C@@H](O)[C@H]2O)c2ncnc(N)c12` [Compound 8b], for which the CSNK1D inhibitory activity result on CSNK1D was “++”. For the same compound, the DYRK1A inhibitory activity entry at DYRK1A is reported as “+++”. At NTRK1, the NTRK1 inhibitory activity entry was “+++”. At DYRK1B, the DYRK1B inhibitory activity result is given as “+++”. On FLT3, the FLT3 inhibitory activity entry is “++”. Also, the IC50 was determined as 23.3 µM in assay [1]; 21.2 µM in assay [2]; 28.6 µM in the assay on A549 (lung cancer cells); 29.1 µM in assay [3]; 26.3 µM in assay [4]; 32.4 µM in assay [5].
`C#Cc1cn([C@@H]2S[C@H](CN)[C@@H](O)[C@H]2O)c2ncnc(N)c12` [Compound 10a]: the CSNK1D inhibitory activity result at CSNK1D was “+++”. Further, on DYRK1A, the DYRK1A inhibitory activity result is reported as “+++”. In addition, at NTRK1, the NTRK1 inhibitory activity entry was “+++”. For the same compound, the DYRK1B inhibitory activity result on DYRK1B is “++”. Further, the FLT3 inhibitory activity entry on FLT3 is listed as “+++”. In addition, the IC50 in [1] was determined as 1.33 µM; in assay [2], 1.4 µM; in the assay on A549 (lung cancer cells), 1.58 µM; in [3] it was 1.98 µM; in assay [4] it was 1.35 µM; in assay [5] it was 1.87 µM.

The values are drawn from patent publication US20240300991A1, “NUCLEOSIDE DERIVATIVE HAVING MULTI-TARGET KINASE INHIBITORY ACTIVITY AND PHARMACEUTICAL COMPOSITION FOR PREVENTING AND TREATING CANCER COMPRISING SAME” (FUTURE MEDICINE CO., LTD., priority 2021, published 2024).
